Data from ChEMBL document CHEMBL3351867, “Sequence-specific DNA alkylation and transcriptional inhibition by long-chain hairpin pyrrole-imidazole polyamide-chlorambucil conjugates targeting CAG/CTG trinucleotide repeats” (Bioorg Med Chem, 2014).
Each block holds one compound with its values, some of them ahead of it. Calls of active or inactive are those of the source. The rule behind the calls is not given here.

Tests used:
[1] = Binding affinity to biotinylated (5'-AGCAGCAGCA-3'/5'-TGCTGCTGCT-3') hairpin DNA (unknown origin) assessed as […] of compound from 2:1 compound and DNA complex by SPR assay
[2] = Binding affinity to biotinylated (5'-AGCAGCAGCA-3'/5'-TGCTGCTGCT-3') hairpin DNA (unknown origin) assessed as […] of compound from 1:1 compound and DNA complex by SPR assay
[3] = Induction of DNA alkylation of 5'-Texas Red-labeled 214 bp DNA fragments with (CAG)12 repeat sequence (unknown origin) at 2.5 to 20 nM after 18 hrs by high resolution gel electrophoresis
[4] = Induction of DNA alkylation of 5'-Texas Red-labeled 214 bp DNA fragments with (CTG)12 repeat sequence (unknown origin) at 2.5 to 20 nM after 18 hrs by high resolution gel electrophoresis
[5] = Binding affinity to biotinylated (5'-AGCAGCAGCA-3'/5'-TGCTGCTGCT-3') hairpin DNA (unknown origin) by SPR assay
[6] = Induction of DNA alkylation of 5'-Texas Red-labeled 214 bp DNA fragments with (5'-TTG(CTG)12-3' repeat sequence (unknown origin) at 2.5 to 20 nM after 18 hrs by high resolution gel electrophoresis
[7] = Induction of DNA alkylation of 5'-Texas Red-labeled 214 bp DNA fragments with (5'-(CAG)12CAA-3' repeat sequence (unknown origin) at 2.5 to 20 nM after 18 hrs by high resolution gel electrophoresis
[8] = Induction of DNA alkylation of DNA fragments with (CTG)12 repeat sequence (unknown origin) assessed as inhibition of T7 RNA polymerase-mediated transcription using T7 promoter primer and sp6 promoter primer at 10 to 30 nM after 18 hrs by […] staining based high resolution gel electrophoresis
[9] = Induction of DNA alkylation of DNA fragments with (CAG)12 repeat sequence (unknown origin) assessed as inhibition of T7 RNA polymerase-mediated transcription using T7 promoter primer and sp6 promoter primer at 10 to 30 nM after 18 hrs by […] staining based high resolution gel electrophoresis
[10] = Induction of DNA alkylation of 5'-Texas Red-labeled 214 bp DNA fragments with (CAG)12 repeat sequence (unknown origin) at 150 nmol after 18 hrs by high resolution gel electrophoresis

SMILES: CC(=O)Nc1cn(C)c(C(=O)Nc2cc(C(=O)NCCC(=O)Nc3cn(C)c(C(=O)Nc4cc(C(=O)NCCC(=O)NCCCN(C)CCCNC(=O)CCCc5ccc(N(CCCl)CCCl)cc5)n(C)c4)n3)n(C)c2)n1
- Activity [3]: inactive
- Activity [4]: inactive

SMILES: CC(=O)Nc1cn(C)c(C(=O)Nc2cc(C(=O)NCCC(=O)Nc3cn(C)c(C(=O)Nc4cc(C(=O)NCCC(=O)Nc5cn(C)c(C(=O)Nc6cc(C(=O)NCCCC(=O)Nc7cn(C)c(C(=O)Nc8cc(C(=O)NCCC(=O)Nc9cn(C)c(C(=O)Nc%10cc(C(=O)NCCC(=O)Nc%11cn(C)c(C(=O)Nc%12cc(C(=O)NCCC(=O)NCCCN(C)CCCN)n(C)c%12)n%11)n(C)c%10)n9)n(C)c8)n7)n(C)c6)n5)n(C)c4)n3)n(C)c2)n1
- Kd [5]: 53 nM

SMILES: CC(=O)Nc1cn(C)c(C(=O)Nc2cc(C(=O)NCCC(=O)Nc3cn(C)c(C(=O)Nc4cc(C(=O)NCCC(=O)Nc5cn(C)c(C(=O)Nc6cc(C(=O)NCC[C@@H](N)C(=O)Nc7cn(C)c(C(=O)Nc8cc(C(=O)NCCC(=O)Nc9cn(C)c(C(=O)Nc%10cc(C(=O)NCCC(=O)Nc%11cn(C)c(C(=O)Nc%12cc(C(=O)NCCC(=O)NCCCN(C)CCCNC(=O)CCCc%13ccc(N(CCCl)CCCl)cc%13)n(C)c%12)n%11)n(C)c%10)n9)n(C)c8)n7)n(C)c6)n5)n(C)c4)n3)n(C)c2)n1
- Activity [6]: Active
- Activity [7]: Active
- Activity [8]: Dose-dependent effect
- Activity [9]: Dose-dependent effect

Results, then the compound that gave them:

- Kd [1]: 13 nM
- Kd [2]: 610 nM
SMILES: CC(=O)Nc1cn(C)c(C(=O)Nc2cc(C(=O)NCCC(=O)Nc3cn(C)c(C(=O)Nc4cc(C(=O)NCCC(=O)NCCCN(C)CCCN)n(C)c4)n3)n(C)c2)n1

- Kd [5]: 14 nM
SMILES: CC(=O)Nc1cn(C)c(C(=O)Nc2cc(C(=O)NCCC(=O)Nc3cn(C)c(C(=O)Nc4cc(C(=O)NCCCC(=O)Nc5cn(C)c(C(=O)Nc6cc(C(=O)NCCC(=O)Nc7cn(C)c(C(=O)Nc8cc(C(=O)NCCC(=O)NCCCN(C)CCCN)n(C)c8)n7)n(C)c6)n5)n(C)c4)n3)n(C)c2)n1

- Activity [3]: Active
- Activity [6]: Active
- Activity [7]: Active
- Activity [4]: Active
SMILES: CC(=O)Nc1cn(C)c(C(=O)Nc2cc(C(=O)NCCC(=O)Nc3cn(C)c(C(=O)Nc4cc(C(=O)NCCC(=O)Nc5cn(C)c(C(=O)Nc6cc(C(=O)NCCCC(=O)Nc7cn(C)c(C(=O)Nc8cc(C(=O)NCCC(=O)Nc9cn(C)c(C(=O)Nc%10cc(C(=O)NCCC(=O)Nc%11cn(C)c(C(=O)Nc%12cc(C(=O)NCCC(=O)NCCCN(C)CCCNC(=O)CCCc%13ccc(N(CCCl)CCCl)cc%13)n(C)c%12)n%11)n(C)c%10)n9)n(C)c8)n7)n(C)c6)n5)n(C)c4)n3)n(C)c2)n1

- Activity [8]: inactive
- Activity [9]: inactive
- Kd [5]: 11 nM
SMILES: CC(=O)Nc1cn(C)c(C(=O)Nc2cc(C(=O)NCCC(=O)Nc3cn(C)c(C(=O)Nc4cc(C(=O)NCCC(=O)Nc5cn(C)c(C(=O)Nc6cc(C(=O)NCC[C@@H](N)C(=O)Nc7cn(C)c(C(=O)Nc8cc(C(=O)NCCC(=O)Nc9cn(C)c(C(=O)Nc%10cc(C(=O)NCCC(=O)Nc%11cn(C)c(C(=O)Nc%12cc(C(=O)NCCC(=O)NCCCN(C)CCCN)n(C)c%12)n%11)n(C)c%10)n9)n(C)c8)n7)n(C)c6)n5)n(C)c4)n3)n(C)c2)n1

- Activity [3]: inactive
- Activity [4]: Active
- Activity [10]: Active
SMILES: CC(=O)Nc1cn(C)c(C(=O)Nc2cc(C(=O)NCCC(=O)Nc3cn(C)c(C(=O)Nc4cc(C(=O)NCCCC(=O)Nc5cn(C)c(C(=O)Nc6cc(C(=O)NCCC(=O)Nc7cn(C)c(C(=O)Nc8cc(C(=O)NCCC(=O)NCCCN(C)CCCNC(=O)CCCc9ccc(N(CCCl)CCCl)cc9)n(C)c8)n7)n(C)c6)n5)n(C)c4)n3)n(C)c2)n1
